The values below come from patent publication US6787342B2, “Paste formulations” (Merial Limited, priority 2000, dated 2004).

Data set [1] can be described thus: Carr Index (compressibility/flowability) of unmilled polymorphic forms. The format is physicochemical. From the text:
After crystallization and before micronization, the Carr Index of B form is lower than 10 (in %). The Can Index CI is defined as [formula] where P is the packed bulk density (g cm^−3), L is the loose bulk density (g cm 3). CI is also known as a compressibility index. A low figure for Cl corresponds to a high degree of flowability. The Carr Index way be calculated from Mercury Intrusion Porosimetry or measured by Tap-Tap.

A short description of data set [2]: Thermodynamic stability of polymorphic forms (DSC, Burger's rule). It counts as physicochemical. Particulars: monotropic system. From the text:
When heated, form A transforms to form B depending on the heating rate.
Therefore, the transition A→B is under kinetic control as usual in case of polymorphism. The transition from A to B may also be followed by XRay under heating (FIG. 12).

The subject of data set [3] is Cooperia onocophora and Nematodirus. The settings on record: against Cooperia onocophora and Nematodirus; cited from earlier work.

Turning to `CC1(C)OC(=O)C(OCC2CC2)=C1c1ccc(S(C)(=O)=O)cc1` [Polymorph B, 3-(cyclopropylmethoxy)-4-[4-(methylsulfonyl)phenyl]-5,5-dimethyl-5H-furan-2-one], in data set [1] (after crystallization and before micronization), the “Carr Index” value is recorded as “lower than 10%”. In addition, in data set [1] (compared with Polymorph A), the flow characteristics entry was “better flow characteristics than Polymorph A”. The “thermodynamic stability of polymorphic form” value is on record as “thermodynamically more stable than Polymorph A” in data set [2] and “the most stable form” in data set [2] (listed as B form).
On to “22,23-dihydro avermectin Bla/Blb [ivermectin]”, for which, in data set [3], the “ivermectin plasma level required for efficacy” value was 3 to 4 ng/mL.
